One data set deals with T1, GUN1-PS (Arabidopsis thaliana, UniProt Q9SIC9).
T1 sequence (Q9SIC9 232-918): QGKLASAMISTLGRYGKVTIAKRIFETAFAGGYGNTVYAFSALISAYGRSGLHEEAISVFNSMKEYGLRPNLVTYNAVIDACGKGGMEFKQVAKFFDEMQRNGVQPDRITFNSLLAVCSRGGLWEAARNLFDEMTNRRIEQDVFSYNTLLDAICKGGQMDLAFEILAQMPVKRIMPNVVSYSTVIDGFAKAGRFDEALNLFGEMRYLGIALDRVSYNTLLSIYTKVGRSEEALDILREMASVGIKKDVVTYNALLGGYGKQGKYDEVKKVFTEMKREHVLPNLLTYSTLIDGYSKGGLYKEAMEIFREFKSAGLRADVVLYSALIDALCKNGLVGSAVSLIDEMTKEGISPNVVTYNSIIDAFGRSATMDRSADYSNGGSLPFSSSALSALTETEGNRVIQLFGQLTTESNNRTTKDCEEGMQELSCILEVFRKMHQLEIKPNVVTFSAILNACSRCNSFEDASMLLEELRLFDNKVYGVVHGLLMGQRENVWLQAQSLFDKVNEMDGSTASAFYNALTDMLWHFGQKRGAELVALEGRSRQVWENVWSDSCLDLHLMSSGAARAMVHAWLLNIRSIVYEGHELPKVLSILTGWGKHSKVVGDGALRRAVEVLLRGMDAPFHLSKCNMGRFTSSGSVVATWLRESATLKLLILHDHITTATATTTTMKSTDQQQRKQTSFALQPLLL
The experiment in a line: differential absorption spectrophotometry. The format is binding.

Substrate in the data set “purified protein”: C=CC1=C(C)c2cc3[nH]c(cc4nc(cc5[nH]c(cc1n2)c(C)c5CCC(=O)O)C(CCC(=O)O)=C4C)c(C)c3C=C
The experiment in a line: purified protein. The note with it: Zn chelation; without GUN1-PS.

One may read the Kd as a measure of binding affinity in units of concentration. In general, Km refers to the concentration of substrate that gives half-maximal velocity.

With `C=CC1=C(C)c2cc3[nH]c(cc4nc(cc5[nH]c(cc1n2)c(C)c5CCC(=O)O)C(CCC(=O)O)=C4C)c(C)c3C=C` [Proto IX], on GUN1-PS, the Kd was determined as 4.42 ± 0.56 µM.
Molecule `C=CC1=C(C)C2=Cc3c(C=C)c(C)c4[n]3[Fe]([Cl])[n]3c(c(C)c(CCC(=O)O)c3=CC3=NC(=C4)C(C)=C3CCC(=O)O)=CC1=N2` [hemin] registered a Kd at GUN1-PS of 6.08 ± 1.11 µM.

B1: FC1 (Arabidopsis thaliana) (protein)
chain: CDIKERSFGESMTITNRGLSFKTNVFEQARSVTGDCSYDETSAKARSHVVAEDKIGVLLLNLGGPETLNDVQPFLYNLFADPDIIRLPRPFQFLQGTIAKFISVVRAPKSKEGYAAIGGGSPLRKITDEQADAIKMSLQAKNIAANVYVGMRYWYPFTEEAVQQIKKDKITRLVVLPLYPQYSISTTGSSIRVLQDLFRKDPYLAGVPVAIIKSWYQRRGYVNSMADLIEKELQTFSDPKEVMIFFSAHGVPVSYVENAGDPYQKQMEECIDLIMEELKARGVLNDHKLAYQSRVGPVQWLKPYTDEVLVDLGKSGVKSLLAVPVSFVSEHIETLEEIDMEYRELALESGVENWGRVPALGLTPSFITDLADAVIESLPSAEAMSNPNAVVDSEDSESSDAFSYIVKMFFGSILAFVLLLSPKMFHAFRNL
On to B1, for which, in the data set “purified protein”, the Km came to 26.5 µM.

Source of the values: article PMC6900522 (Proceedings of the National Academy of Sciences of the …, 2019).
